Columns and labels:
U2OS osteosarcoma cells = test: ROS Assay (dihydroethidium); type: cell-based; settings: 48 hours
Protocol: U2OS osteosarcoma cells were plated on six well cell culture plates (5*10^5 cells/well). […]. Cells were washed with phosphate–buffered saline (PBS) and incubated for 30 min at 37°C in the dark with 10 µM dihydroethidium (DHE) in PBS and washed with PBS. The cells were then trypsinized, collected by centrifugation, and lysed with lysis buffer (100 mM Tris/HCl, pH 7.3, 2 mM EGTA, 2% Triton X100). The amount of ethidium produced by reactive oxygen species (ROS) was quantified by measuring the fluorescence (Ex485, Em620) in a POLARstar plate reader (BMG Labtech, Offenburg, Germany). Values obtained for different compound concentrations were compared using the two-sided Student's t-test; levels of significance thus obtained are indicated by asterisks.

[1] = system: V79 hamster lung fibroblast cells; test: ViaLight Toxicity Assay; type: cell-based; settings: V79 cells, 5 µM, 48 hours
Protocol: V79 hamster lung fibroblast cells were plated at a density of 45,000 cells per well in a white 96 well plate and allowed to adhere and grow for 24 hours. The compounds were then applied as dilutions in cell culture medium (DMEM with 10% FCS and penicillin/streptomycin mix) at a final concentration of 5, 10, and 20 µM, respectively. The plate was further incubated for 48 hours at 37°C in a humidified atmosphere containing 5% CO2. The ATP level was detected with a LONZA ViaLight™ Plus Kit according to protocol 1 of the vendor's instructions. Luminescence was measured in a POLARstar plate reader (BMG Labtech, Offenburg, Germany). The background luminescence was obtained from equally treated, cell-free wells containing serum, and subtracted from all values. Inhibition values obtained for different compound concentrations were compared using the two-sided Student's t-test; levels of significance thus obtained are indicated by asterisks.

CLK2 = target: T1, CLK2 (Homo sapiens, UniProt P49760); test: Selectivity panel CLK2; type: biochemical; settings: 5 µM inhibitor
T1 construct: purchased Life Technologies (Invitrogen SelectScreen); Dyrk1A, Dyrk2 and CK2α in-house or gifts
T1 sequence (P49760 whole entry): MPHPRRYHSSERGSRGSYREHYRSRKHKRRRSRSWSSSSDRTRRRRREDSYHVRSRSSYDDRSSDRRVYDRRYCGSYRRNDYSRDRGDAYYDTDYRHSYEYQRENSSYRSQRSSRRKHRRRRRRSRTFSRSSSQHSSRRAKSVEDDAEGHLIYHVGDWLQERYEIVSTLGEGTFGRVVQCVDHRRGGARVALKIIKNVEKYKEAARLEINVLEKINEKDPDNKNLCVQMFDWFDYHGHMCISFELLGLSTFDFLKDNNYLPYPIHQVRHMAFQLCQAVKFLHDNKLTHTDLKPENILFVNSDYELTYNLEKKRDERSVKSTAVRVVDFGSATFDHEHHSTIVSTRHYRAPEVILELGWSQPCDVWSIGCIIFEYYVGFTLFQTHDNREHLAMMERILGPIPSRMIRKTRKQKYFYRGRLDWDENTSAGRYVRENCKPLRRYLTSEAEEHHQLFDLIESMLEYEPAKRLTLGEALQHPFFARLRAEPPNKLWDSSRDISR

CDK1/cyclin B = target: T2, CDK1/cyclin B (Homo sapiens, UniProt P06493); test: Selectivity panel CDK1/cyclin B; type: biochemical; settings: 5 µM inhibitor
T2 construct: purchased Life Technologies (Invitrogen SelectScreen); Dyrk1A, Dyrk2 and CK2α in-house or gifts

MAPK12 (p38 gamma, ERK3) = target: T3, MAPK12 (p38 gamma, ERK3) (Homo sapiens, UniProt P53778); test: Selectivity panel MAPK12; type: biochemical; settings: 5 µM inhibitor
T3 construct: purchased Life Technologies (Invitrogen SelectScreen); Dyrk1A, Dyrk2 and CK2α in-house or gifts

SRPK1 = target: T4, SRPK1 (Homo sapiens, UniProt Q96SB4); test: Selectivity panel SRPK1; type: biochemical; settings: 5 µM inhibitor
T4 construct: purchased Life Technologies (Invitrogen SelectScreen); Dyrk1A, Dyrk2 and CK2α in-house or gifts
T4 sequence (Q96SB4 whole entry): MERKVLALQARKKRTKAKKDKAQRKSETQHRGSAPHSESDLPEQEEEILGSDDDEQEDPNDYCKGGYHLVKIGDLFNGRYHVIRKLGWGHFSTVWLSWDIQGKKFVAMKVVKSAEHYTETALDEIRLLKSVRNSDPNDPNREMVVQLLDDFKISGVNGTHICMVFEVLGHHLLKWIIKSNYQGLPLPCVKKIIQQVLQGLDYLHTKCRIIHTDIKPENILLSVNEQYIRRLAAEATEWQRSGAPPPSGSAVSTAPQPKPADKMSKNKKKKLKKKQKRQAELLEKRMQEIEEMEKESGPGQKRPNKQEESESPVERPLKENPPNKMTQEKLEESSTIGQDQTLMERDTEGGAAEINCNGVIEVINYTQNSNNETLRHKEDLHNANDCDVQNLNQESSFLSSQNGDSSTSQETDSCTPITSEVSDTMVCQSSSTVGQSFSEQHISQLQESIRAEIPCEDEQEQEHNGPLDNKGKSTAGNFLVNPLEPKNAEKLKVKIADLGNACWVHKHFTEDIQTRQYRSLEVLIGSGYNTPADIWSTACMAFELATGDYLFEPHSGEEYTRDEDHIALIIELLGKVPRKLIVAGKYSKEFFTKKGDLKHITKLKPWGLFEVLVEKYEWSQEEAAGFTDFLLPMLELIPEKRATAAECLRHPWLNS

MAP3K14 (NIK) = target: T5, MAP3K14 (NIK) (Homo sapiens, UniProt Q99558); test: Selectivity panel MAP3K14; type: biochemical; settings: 5 µM inhibitor
T5 construct: purchased Life Technologies (Invitrogen SelectScreen); Dyrk1A, Dyrk2 and CK2α in-house or gifts

MAP2K1 (MEK1) = target: T6, MAP2K1 (MEK1) (Homo sapiens, UniProt Q02750); test: Selectivity panel MAP2K1; type: biochemical; settings: 5 µM inhibitor
T6 construct: purchased Life Technologies (Invitrogen SelectScreen); Dyrk1A, Dyrk2 and CK2α in-house or gifts

PAK4 = target: T7, PAK4 (Homo sapiens, UniProt O96013); test: Selectivity panel PAK4; type: biochemical; settings: 5 µM inhibitor
T7 construct: purchased Life Technologies (Invitrogen SelectScreen); Dyrk1A, Dyrk2 and CK2α in-house or gifts
T7 sequence (O96013 whole entry): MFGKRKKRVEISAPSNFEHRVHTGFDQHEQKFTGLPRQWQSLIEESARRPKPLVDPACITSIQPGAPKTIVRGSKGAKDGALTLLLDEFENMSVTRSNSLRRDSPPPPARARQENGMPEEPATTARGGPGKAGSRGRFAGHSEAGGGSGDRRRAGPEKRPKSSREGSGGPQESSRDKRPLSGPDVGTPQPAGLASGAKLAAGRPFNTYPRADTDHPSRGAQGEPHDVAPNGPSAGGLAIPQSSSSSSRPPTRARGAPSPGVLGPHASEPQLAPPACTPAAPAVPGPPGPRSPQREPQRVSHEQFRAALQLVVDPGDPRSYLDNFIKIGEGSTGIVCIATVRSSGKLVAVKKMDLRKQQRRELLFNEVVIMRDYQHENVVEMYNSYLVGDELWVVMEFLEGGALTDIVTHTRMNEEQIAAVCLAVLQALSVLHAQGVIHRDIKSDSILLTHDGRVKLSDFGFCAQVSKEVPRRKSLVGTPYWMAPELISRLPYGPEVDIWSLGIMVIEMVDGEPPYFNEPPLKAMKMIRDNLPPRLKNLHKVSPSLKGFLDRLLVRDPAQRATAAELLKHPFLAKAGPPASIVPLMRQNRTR

[2] = target: T8, (Homo sapiens, UniProt Q9UEW8); test: Selectivity panel PASK (STLK3); type: biochemical; settings: 5 µM inhibitor; listed under STE
T8 construct: purchased Life Technologies (Invitrogen SelectScreen); Dyrk1A, Dyrk2 and CK2α in-house or gifts

CHEK1 (CHK1) = target: T9, CHEK1 (CHK1) (Homo sapiens, UniProt O14757); test: Selectivity panel CHEK1; type: biochemical; settings: 5 µM inhibitor
T9 construct: purchased Life Technologies (Invitrogen SelectScreen); Dyrk1A, Dyrk2 and CK2α in-house or gifts

CHEK2 (CHK2) = target: T10, CHEK2 (CHK2) (Homo sapiens, UniProt O96017); test: Selectivity panel CHEK2; type: biochemical; settings: 5 µM inhibitor
T10 construct: purchased Life Technologies (Invitrogen SelectScreen); Dyrk1A, Dyrk2 and CK2α in-house or gifts

CSNK1G1 (CK1 gamma 1) = target: T11, CSNK1G1 (CK1 gamma 1) (Homo sapiens, UniProt Q9HCP0); test: Selectivity panel CSNK1G1; type: biochemical; settings: 5 µM inhibitor
T11 construct: purchased Life Technologies (Invitrogen SelectScreen); Dyrk1A, Dyrk2 and CK2α in-house or gifts
T11 sequence (Q9HCP0 whole entry): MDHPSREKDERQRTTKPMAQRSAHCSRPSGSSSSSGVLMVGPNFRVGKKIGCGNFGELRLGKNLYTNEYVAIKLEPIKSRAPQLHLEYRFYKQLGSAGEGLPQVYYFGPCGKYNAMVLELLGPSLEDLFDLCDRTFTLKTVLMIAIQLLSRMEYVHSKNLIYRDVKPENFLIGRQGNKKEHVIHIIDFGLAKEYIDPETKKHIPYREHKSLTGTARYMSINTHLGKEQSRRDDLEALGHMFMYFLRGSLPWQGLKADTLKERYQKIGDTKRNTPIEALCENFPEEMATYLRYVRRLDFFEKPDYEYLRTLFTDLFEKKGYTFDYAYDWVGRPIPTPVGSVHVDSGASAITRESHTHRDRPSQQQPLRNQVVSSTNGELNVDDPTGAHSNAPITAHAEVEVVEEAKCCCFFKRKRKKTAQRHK

TGFBR1 (ALK5) = target: T12, TGFBR1 (ALK5) (Homo sapiens, UniProt P36897); test: Selectivity panel TGFBR1; type: biochemical; settings: 5 µM inhibitor
T12 construct: purchased Life Technologies (Invitrogen SelectScreen); Dyrk1A, Dyrk2 and CK2α in-house or gifts
T12 sequence (P36897 34-503): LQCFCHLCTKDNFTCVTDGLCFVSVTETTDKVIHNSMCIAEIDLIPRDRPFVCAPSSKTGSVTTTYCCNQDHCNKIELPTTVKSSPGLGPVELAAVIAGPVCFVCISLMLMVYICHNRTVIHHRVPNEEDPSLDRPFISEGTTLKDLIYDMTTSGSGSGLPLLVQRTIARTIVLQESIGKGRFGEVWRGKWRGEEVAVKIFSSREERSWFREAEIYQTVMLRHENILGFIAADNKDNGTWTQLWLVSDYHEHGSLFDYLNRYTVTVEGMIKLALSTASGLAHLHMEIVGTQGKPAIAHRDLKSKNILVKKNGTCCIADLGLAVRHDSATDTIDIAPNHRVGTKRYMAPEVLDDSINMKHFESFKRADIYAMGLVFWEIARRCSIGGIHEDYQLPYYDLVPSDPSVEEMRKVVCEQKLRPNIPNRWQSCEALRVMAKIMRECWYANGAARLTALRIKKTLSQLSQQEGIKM

AXL = target: T13, AXL (Homo sapiens, UniProt P30530); test: Selectivity panel AXL; type: biochemical; settings: 5 µM inhibitor
T13 construct: purchased Life Technologies (Invitrogen SelectScreen); Dyrk1A, Dyrk2 and CK2α in-house or gifts

BTK = target: T14, BTK (Homo sapiens, UniProt Q06187); test: Selectivity panel BTK; type: biochemical; settings: 5 µM inhibitor
T14 construct: purchased Life Technologies (Invitrogen SelectScreen); Dyrk1A, Dyrk2 and CK2α in-house or gifts

EPHA5 = target: T15, EPHA5 (Homo sapiens, UniProt P54756); test: Selectivity panel EPHA5; type: biochemical; settings: 5 µM inhibitor
T15 construct: purchased Life Technologies (Invitrogen SelectScreen); Dyrk1A, Dyrk2 and CK2α in-house or gifts

FGFR3 = target: T16, FGFR3 (Homo sapiens, UniProt P22607); test: Selectivity panel FGFR3; type: biochemical; settings: 5 µM inhibitor
T16 construct: purchased Life Technologies (Invitrogen SelectScreen); Dyrk1A, Dyrk2 and CK2α in-house or gifts
T16 sequence (P22607 23-806): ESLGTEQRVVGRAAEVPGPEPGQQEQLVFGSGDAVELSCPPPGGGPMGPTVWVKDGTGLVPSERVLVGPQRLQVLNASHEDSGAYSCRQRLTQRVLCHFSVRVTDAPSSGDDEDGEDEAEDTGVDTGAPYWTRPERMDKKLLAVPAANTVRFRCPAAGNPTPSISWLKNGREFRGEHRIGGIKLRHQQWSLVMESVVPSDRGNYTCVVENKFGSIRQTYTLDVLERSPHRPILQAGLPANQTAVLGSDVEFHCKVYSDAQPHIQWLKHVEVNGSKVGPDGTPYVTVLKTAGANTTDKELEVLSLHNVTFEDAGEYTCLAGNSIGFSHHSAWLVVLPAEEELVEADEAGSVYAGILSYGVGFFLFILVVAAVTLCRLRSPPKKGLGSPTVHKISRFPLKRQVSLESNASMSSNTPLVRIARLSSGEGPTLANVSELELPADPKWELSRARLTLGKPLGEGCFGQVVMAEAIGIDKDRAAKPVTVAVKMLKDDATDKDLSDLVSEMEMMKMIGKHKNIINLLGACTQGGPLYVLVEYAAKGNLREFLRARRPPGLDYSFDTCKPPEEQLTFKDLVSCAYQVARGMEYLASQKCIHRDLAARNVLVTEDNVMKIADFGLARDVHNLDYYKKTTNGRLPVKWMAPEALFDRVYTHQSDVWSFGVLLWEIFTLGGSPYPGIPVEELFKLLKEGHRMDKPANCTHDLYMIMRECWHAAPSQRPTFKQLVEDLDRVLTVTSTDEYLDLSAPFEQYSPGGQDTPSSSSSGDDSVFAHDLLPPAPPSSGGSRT

MET (cMet) = target: T17, MET (cMet) (Homo sapiens, UniProt P08581); test: Selectivity panel MET; type: biochemical; settings: 5 µM inhibitor
T17 construct: purchased Life Technologies (Invitrogen SelectScreen); Dyrk1A, Dyrk2 and CK2α in-house or gifts
T17 sequence (P08581 25-1390): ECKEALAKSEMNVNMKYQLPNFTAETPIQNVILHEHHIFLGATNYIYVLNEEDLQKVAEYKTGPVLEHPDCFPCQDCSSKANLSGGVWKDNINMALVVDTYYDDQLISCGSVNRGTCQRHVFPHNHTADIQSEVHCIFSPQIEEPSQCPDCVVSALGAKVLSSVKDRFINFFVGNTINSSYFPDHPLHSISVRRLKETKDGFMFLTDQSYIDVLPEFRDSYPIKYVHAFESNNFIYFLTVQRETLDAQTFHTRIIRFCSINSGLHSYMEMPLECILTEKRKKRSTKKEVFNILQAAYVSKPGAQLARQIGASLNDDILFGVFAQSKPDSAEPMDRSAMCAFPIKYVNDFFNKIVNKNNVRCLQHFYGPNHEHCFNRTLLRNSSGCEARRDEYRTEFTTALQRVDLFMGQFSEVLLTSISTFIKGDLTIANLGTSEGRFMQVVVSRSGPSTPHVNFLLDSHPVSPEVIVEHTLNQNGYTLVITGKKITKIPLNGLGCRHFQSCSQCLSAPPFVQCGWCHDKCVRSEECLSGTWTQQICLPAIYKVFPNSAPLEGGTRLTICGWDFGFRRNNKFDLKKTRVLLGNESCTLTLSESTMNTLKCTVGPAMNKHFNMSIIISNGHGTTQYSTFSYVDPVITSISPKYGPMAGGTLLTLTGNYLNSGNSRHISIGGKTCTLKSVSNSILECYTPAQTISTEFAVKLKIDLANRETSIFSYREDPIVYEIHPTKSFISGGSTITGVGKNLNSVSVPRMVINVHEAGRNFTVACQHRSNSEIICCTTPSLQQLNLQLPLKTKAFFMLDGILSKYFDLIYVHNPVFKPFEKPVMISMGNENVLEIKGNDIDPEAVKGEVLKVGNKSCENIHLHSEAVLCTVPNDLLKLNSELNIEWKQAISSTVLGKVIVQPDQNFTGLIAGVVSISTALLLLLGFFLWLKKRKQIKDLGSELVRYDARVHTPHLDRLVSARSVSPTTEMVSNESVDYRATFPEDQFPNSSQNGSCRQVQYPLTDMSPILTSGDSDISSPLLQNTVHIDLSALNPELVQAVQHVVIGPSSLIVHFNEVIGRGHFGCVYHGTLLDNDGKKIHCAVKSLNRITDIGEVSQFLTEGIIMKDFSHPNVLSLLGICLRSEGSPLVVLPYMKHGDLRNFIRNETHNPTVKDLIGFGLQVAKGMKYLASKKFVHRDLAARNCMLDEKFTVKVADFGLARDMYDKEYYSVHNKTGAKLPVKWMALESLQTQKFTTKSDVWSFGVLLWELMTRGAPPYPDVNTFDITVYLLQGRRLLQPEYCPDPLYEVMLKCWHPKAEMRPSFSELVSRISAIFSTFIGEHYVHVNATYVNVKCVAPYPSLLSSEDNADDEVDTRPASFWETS

In the case of `c1cncc(-c2cc(-c3cncs3)cs2)c1` [Compound 29, 3-[4-(1,3-thiazol-5-yl)thiophen-2-yl]pyridine], the “concentration at which enhancement of reporter dye fluorescence (ROS) starts” value (U2OS osteosarcoma cells) is reported as 0.2 µM, the “influence on cell viability (cellular ATP levels)” value [1] is reported as “no influence on cell viability” and the inhibition at 5 µM (CLK2) is reported as 72%. For the same compound, the inhibition at 5 µM (CDK1/cyclin B) was 29%, the inhibition at 5 µM (MAPK12 (p38 gamma, ERK3)) was -2% and the inhibition at 5 µM (SRPK1) was 3%. It also gave an inhibition at 5 µM (MAP3K14 (NIK)) of 2%, an inhibition at 5 µM (MAP2K1 (MEK1)) of 1% and an inhibition at 5 µM (PAK4) of 3%. The inhibition at 5 µM [2] was 23%, the inhibition at 5 µM (CHEK1 (CHK1)) was 3% and the inhibition at 5 µM (CHEK2 (CHK2)) was 1%. It also gave an inhibition at 5 µM (CSNK1G1 (CK1 gamma 1)) of -5%, an inhibition at 5 µM (TGFBR1 (ALK5)) of 24% and an inhibition at 5 µM (AXL) of -2%. The inhibition at 5 µM (BTK) was 17%, the inhibition at 5 µM (EPHA5) was -9% and the inhibition at 5 µM (FGFR3) was -2%. It also gave an inhibition at 5 µM (MET (cMet)) of 1%.
`c1cncc(-c2csc(-c3cncs3)c2)c1` [Compound 48, 3-[5-(1,3-thiazol-5-yl)thiophen-3-yl]pyridine] was tested, and the “influence on cell viability (cellular ATP levels)” value [1] was “no influence on cell viability”, the inhibition at 5 µM (CLK2) was 78% and the inhibition at 5 µM (CDK1/cyclin B) was 42%. For the same compound, the inhibition at 5 µM (MAPK12 (p38 gamma, ERK3)) was 3%, the inhibition at 5 µM (SRPK1) was 1% and the inhibition at 5 µM (MAP3K14 (NIK)) was 5%. The inhibition at 5 µM (MAP2K1 (MEK1)) was 2%, the inhibition at 5 µM (PAK4) was 4% and the inhibition at 5 µM [2] was 27%. For the same compound, the inhibition at 5 µM (CHEK1 (CHK1)) was 7%, the inhibition at 5 µM (CHEK2 (CHK2)) was -2% and the inhibition at 5 µM (CSNK1G1 (CK1 gamma 1)) was -3%. The inhibition at 5 µM (TGFBR1 (ALK5)) was 22%, the inhibition at 5 µM (AXL) was -11% and the inhibition at 5 µM (BTK) was 15%. It also gave an inhibition at 5 µM (EPHA5) of -6%, an inhibition at 5 µM (FGFR3) of -1% and an inhibition at 5 µM (MET (cMet)) of -12%.

Reference: publication PMC3968014, “Design and Synthesis of a Library of Lead-Like 2,4-Bisheterocyclic Substituted Thiophenes as Selective Dyrk/Clk Inhibitors” (PLoS ONE, 2014)
